Results from paper PMC8607231, “Generation of KS-133 as a Novel Bicyclic Peptide with a Potent and Selective VIPR2 Antagonist Activity that Counteracts Cognitive Decline in a Mouse Model of Psychiatric Disorders” (Frontiers in Pharmacology, 2021).
Where a SMILES comes first, the peptide text is derived from it. Bridges are numbered along the chain shown (N, C = ends).

How the values were obtained:
[1] = Peptide stability in rat plasma (RP-HPLC); assay type: in vitro ADME
Method: Each peptide (10 mM, 1 μl) was incubated with rat plasma (20 μl) prepared in-house. Immediately after mixing with plasma and after 24 h of incubation at 37°C, 80% acetonitrile (200 μl) was added to extract VIpep-3 and acetonitrile (200 μl) was added to extract KS-132, KS-133(monocyclic), and KS-133. The mixture was stored for 10 min on ice and then centrifuged at 20,000 × g for 10 min at 4°C. The supernatant was recovered and directly applied to RP-HPLC to determine the remaining amount of unmodified peptides in the sample.
The stability of peptides was evaluated in rat plasma. A peptide was incubated in rat plasma at 37°C for 0 and 24 h and the remaining amount of peptide was determined by RP-HPLC. By comparison with the peak area of the peptide, the remaining amount of the peptide after plasma incubation was estimated. […] KS-133(monocyclic) may form a pseudo bicyclic structure by ionic bond interaction between side chains of Lys and Asp.

[2] = Plasma and brain levels after intravenous administration; assay type: in vivo; conditions: mouse
From the text: Generally, drug discovery to target molecules in the CNS is harder than in peripheral tissues. Molecule exchange between the periphery and CNS is strictly restricted by the blood−brain barrier (BBB), especially molecules with a molecular weight (MW) of >400 g/mol. In addition to the MW limit, CNS drugs need to have high lipophilicity to cross the BBB ([McMartin et al., 1987]; [Dong, 2018]), but high lipophilic small molecules likely have undesirable side effects by potential off-target binding. Conversely, the MW of KS-133 was 1558 g/mol, which would avoid off-target side effects by VIPR2-selective binding but would make it difficult to cross the BBB. […] However, it was unclear whether the alterations in CREB phosphorylation were due to directly effects of s.c. injection of Ro 25-1553 and KS-133 on VIPR2 in the CNS. […] Intranasal administration is an attractive route for drug delivery to the brain because it allows direct transport of drugs from the nasal cavity to the brain parenchyma by bypassing systemic circulation ([Thorne et al., 2004]; [Lochhead and Thorne, 2012]; [Iwasaki et al., 2019]). It has been reported that about 1% of an administered molecule enters the CNS without crossing the BBB by administration to the nasal cavity, even those with a MW of 1000 g/mol ([McMartin et al., 1987]; [Dong, 2018]). There are some reports that the BBB becomes leaky in patients with psychiatric disorders such as schizophrenia and ASD ([Patel and Frey, 2015]; [Najjar et al., 2017]; [Kealy et al., 2020]). […] In the future, to clarify the mechanism and routes of how administered KS-133 targets the CNS, detailed pharmacokinetic studies of KS-133 in healthy mice and disease model mice using s.c., i.n., and intravenous administrations will be needed.

[3] = rat plasma, immediately after mixing

Stability in rat plasma ([1]; 37°C, 24 h): highly stable for at least up to 24 h
RP-HPLC peak area, Input (NT) ([1]; no plasma treatment): 161695
RP-HPLC peak area, incubation time 24 h ([1]; rat plasma, 37°C, 24 h): 163537
remaining at 24 h, 0.476 mM ([1]; rat plasma, 37°C, 24 h, read-out: Residual rate, incubation time 24 h): 99%
RP-HPLC peak area, immediately after mixing [1, 3]: 165254
Residual rate, immediately after mixing [1, 3]: 100%
tissue level at time molar at 80 min ([2]; brain, adult male ICR mice, 80 min after intravenous KS-133 1 nmol/g, n = 3, mean ± S.E.M., unpublished data): 0.035 ± 0.005 nmol/g
Plasma elimination half-life ([2]; in vivo): less than an hour
level at time molar at 80 min ([2]; plasma, adult male ICR mice, 80 min after intravenous KS-133 1 nmol/g, n = 3, mean ± S.E.M., unpublished data): 2780 ± 80 nM
Structure (SMILES): CC[C@H](C)[C@H](NC(=O)[C@H](CC(C)C)NC(=O)[C@@H]1CC(=O)NCCCC[C@@H]2NC(=O)[C@@H]3CCCN3C(=O)[C@H](CC(C)C)NC(=O)[C@H](Cc3ccc(O)cc3)NC(=O)[C@@H]3CCCN3C(=O)[C@@H]3CCCN3C(=O)[C@@H](NC(C)=O)CSSC[C@H](NC(=O)[C@H](CC(C)C)NC(=O)[C@H](Cc3ccc(O)cc3)NC2=O)C(=O)N1)C(N)=O [KS-133, Ac-c[Cys-Pro-Pro-Tyr-Leu-Pro-c(Lys-Tyr-Leu-Cys]-Asp)-Leu-Ile-NH2] (Ac-CPPYLPKYLCDLI-NH2; disulfide 1-10; lactam 7-11)
